From PubChem BioAssay (NCI)
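How tested: cells in 96-well plates exposed to compound for 48 hours at five concentrations. GI50 is the concentration that inhibits growth by half. Definition used: TGI = concentration required for complete inhibition of growth.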

Key:
Test in all cases: NCI tumour cell line growth inhibition, 48 h
HL-60(TB) leukemia = tested on: HL-60(TB) leukemia
MDA-MB-435 = tested on: MDA-MB-435
SK-MEL-5 melanoma = tested on: SK-MEL-5 melanoma
MALME-3M melanoma = tested on: MALME-3M melanoma
BT-549 breast = tested on: BT-549 breast
MDA-MB-231 breast = tested on: MDA-MB-231 breast
OVCAR-8 ovarian = tested on: OVCAR-8 ovarian
786-0 renal = tested on: 786-0 renal
NCI/ADR-RES ovarian = tested on: NCI/ADR-RES ovarian
SK-MEL-28 melanoma = tested on: SK-MEL-28 melanoma

| Structure (SMILES) | GI50 (HL-60(TB) leukemia) [nM] | TGI (HL-60(TB) leukemia) [nM] | GI50 (MDA-MB-435) [nM] | TGI (MDA-MB-435) [nM] | GI50 (SK-MEL-5 melanoma) [nM] | TGI (SK-MEL-5 melanoma) [nM] | GI50 (MALME-3M melanoma) [nM] | TGI (MALME-3M melanoma) [nM] | GI50 (BT-549 breast) [nM] | TGI (BT-549 breast) [nM] | GI50 (MDA-MB-231 breast) [nM] | TGI (MDA-MB-231 breast) [nM] | GI50 (OVCAR-8 ovarian) [nM] | TGI (OVCAR-8 ovarian) [nM] | GI50 (786-0 renal) [nM] | TGI (786-0 renal) [nM] | GI50 (NCI/ADR-RES ovarian) [nM] | TGI (NCI/ADR-RES ovarian) [nM] | GI50 (SK-MEL-28 melanoma) [nM] | TGI (SK-MEL-28 melanoma) [nM] |
| --- | --- | --- | --- | --- | --- | --- | --- | --- | --- | --- | --- | --- | --- | --- | --- | --- | --- | --- | --- | --- |
| Cc1ccc(S(=O)(=O)N2C/C(=C\c3cc(F)cc(F)c3)C(=O)/C(=C/c3cc(F)cc(F)c3)C2)cc1 | 243 | 1050 | 236 | 653 | 272 | 908 | 256 | 647 | 286 | 709 | 285 | 867 | 301 | 1770 | 492 | 1660 | 447 | 12700 | 388 | 1320 |
| N=C1N=Nc2nc(C3(c4nc5n(c4O)C(=N)N=N5)Cc4ccccc4C3=O)c(O)n21 (centres undefined) | – | > 100000 | – | > 100000 | – | > 100000 | – | > 100000 | > 100000 | > 100000 | – | > 100000 | – | > 100000 | – | > 100000 | – | > 100000 | – | > 100000 |
| CCN1CCN(Cc2ccc3cc(C(=O)Nc4cc(NC(=O)c5ccc6c(c5)OCCO6)ccc4F)ccc3n2)CC1 | 23.8 | 182 | 60.8 | 3420 | 108 | 756 | 39.4 | 420 | 146 | 7820 | 33.2 | 569 | 57.1 | 12500 | 60.4 | 13100 | 369 | 9550 | 118 | 6750 |
| COC(=O)/C(Br)=C/c1c[nH]c2ccc(Br)cc12 | 61300 | > 100000 | 12200 | 25300 | 12200 | 24600 | 14500 | 28300 | 11200 | 23600 | 11200 | 30400 | 18200 | 34300 | 13000 | 35900 | 12400 | 47800 | 14300 | 27800 |
| COc1cccc(-c2cc(NCc3ccc4c(c3)OCO4)nc(N)n2)c1 | 32.4 | 296 | 17.5 | 52.1 | 43.2 | 3600 | 112 | 26300 | 149 | 5150 | 228 | 13700 | 123 | 5200 | 81.9 | 12900 | 45.8 | 494 | 72.4 | 19700 |
| COc1ccc2cc(C(=O)/C=C/c3ccccc3OC)ccc2c1 | 2550 | 8140 | 570 | 5030 | 2750 | 15900 | 8320 | 67200 | 4550 | 24600 | 2730 | 21700 | 2710 | 7340 | 5590 | 21500 | 3190 | > 37400 | 21300 | > 94800 |
| Cc1cc(Cl)ccc1Nc1nc(C(F)(F)F)ccc1C(=O)N/N=C/c1c(Cl)cccc1Cl | 229 | 530 | 357 | > 100000 | 573 | 2440 | 494 | 2500 | 194 | 675 | 249 | – | 445 | > 100000 | 292 | 1080 | 445 | > 100000 | 806 | > 100000 |
| O=C(Nc1cccc(-n2cc(-c3ccncc3)c(-c3ccc(O)c(Cl)c3)n2)c1)Nc1ccc(Cl)c(C(F)(F)F)c1 | 2550 | 6380 | 1980 | 4880 | 1660 | 3070 | 2430 | 7590 | 1820 | 4280 | 1840 | 7630 | – | – | 2080 | 8180 | 2960 | 9030 | 1670 | 3800 |
| N=C(N)c1ccc(-c2ccc(-c3ccco3)o2)cc1F | 2190 | 4290 | 1630 | 3250 | 1640 | 3040 | 1740 | 3380 | 2190 | 5110 | 1600 | 4010 | 2310 | 6530 | 1740 | 4080 | 2660 | 10900 | 1810 | 3670 |
| COc1ccc(/C=C/C(=O)c2ccc(NC(=O)CSc3nnc(-c4cc(OC)c(OC)c(OC)c4)o3)cc2)cc1 | – | – | 1700 | 3400 | 2140 | 5240 | 1680 | 3450 | 1400 | 2810 | 1820 | 3500 | 2320 | 5730 | 1700 | 3360 | 2420 | 7030 | 1740 | 3400 |
| COc1ccc2c(c1)N(CCO)C1=C(C(=O)OC1)C2c1cccc(Br)c1 (centres undefined) | 67.1 | 601 | 22.5 | 62.3 | 40.7 | 585 | 53.6 | 85700 | 305 | 34000 | 372 | 19400 | 140 | 13900 | 120 | 41400 | 39.7 | 223 | – | – |
| O=C(O)c1cn(C2CC2)c2cc(N3CCN(C(=O)Nc4nc(-c5ccc(Cl)cc5)cs4)CC3)c(F)cc2c1=O | 1470 | 4760 | 2750 | > 100000 | 1760 | 3920 | 1470 | 5830 | 934 | 25500 | 3630 | > 100000 | 1860 | 50900 | 2320 | 22500 | 4210 | > 100000 | 701 | > 100000 |
